{
  "source": "patent US9416145B2",
  "about": "“Compositions and methods for inhibiting activity of hypoxia-inducible transcription factor complex and its use for treatment of tumors” (priority 2012, dated 2016)",
  "key": {"[1]": {"tested_on": "VEGF protein in MCF7 cells", "assay": "Western blot of VEGF protein levels in MCF7 cells", "assay_type": "cell-based, human", "conditions": "MCF7, 400 nM, 300 μM DFO", "description": "(§1) Western blot analysis of VEGF and c-Met protein levels. MCF7 and MDA-MB-231 cells were plated in 60 mm diameter cell culture dishes (BD Falcon) to a density of 1.0×10^6 cells/mL. […] All samples contained a final concentration 0.1-0.2% v/v of DMSO. After a 6 hour incubation period, hypoxia was induced with 300 μM DFO in MCF7 and with […] in MDA-MB-231 cells. Samples were incubated for an additional 18 hours. Total cellular proteins were extracted from the cells using cell lysis buffer according to manufacturer's protocol (Cell Signaling). Protein concentrations were measured with BCA Protein assay kit (Pierce/Thermo Scientific). Equal amounts of protein samples were subjected to SDS-PAGE and electroblotted to PVDF membrane (Bio-Rad). These were probed first with an anti-VEGF mouse monoclonal (sc-57496, Santa Cruz Biotechnology) or anti c-Met rabbit polyclonal antibody (sc-10, Santa Cruz Biotechnology), stripped with Restore Western Blot Stripping Buffer (Pierce/Thermo Scientific) and re-probed with a rabbit polyclonal anti-β-actin antibody (4867, Cell Signaling).\n(§2) After washing with tris-buffered saline—Tween 20 (TBST) solution, the membranes were incubated with horseradish peroxidase (HRP)-conjugated secondary antibodies (Santa Cruz Biotechnology). Signals were detected by using SuperSignal chemiluminescent kit (Pierce/Thermo Scientific)."}, "[2]": {"tested_on": "A549 lung adenocarcinoma cell line", "assay": "MTT cytotoxicity assay in A549 cells", "assay_type": "cell-based", "conditions": "Homo sapiens; A549, 24 h treatment; read-out: EC50 (viability)", "description": "(§3) FIG. 12 MTT cytotoxicity assay data for LS72 in A549 cell line. […]\n(§4) Therefore the treatment of the cells was extended to 48 h in order to better determine its cytotoxicity."}, "[3]": {"assay": "MTT cytotoxicity assay in A549 cells", "assay_type": "cell-based", "conditions": "human, A549 cells; A549, 48 h treatment, serum free F-12K medium", "description": "as §3, §4"}, "VEGF mRNA in A549 cells": {"tested_on": "VEGF mRNA in A549 cells", "assay": "qRT-PCR of VEGF mRNA in A549 cells", "assay_type": "cell-based", "description": "(§5) FIG. 13 mRNA levels of three HIF1α inducible genes: VEGF, c-Met and Glut1 in A549 cells after treatment with LS72. Data from qRT-PCR experiments showing mRNA levels of three HIF1α inducible genes, VEGF, c-Met and Glut1 in A549 after treatment of the cells in a medium with 0.2% serum with LS72 (400 nM). Hypoxia was induced 300 μM by DFO. Error bars are ±s.e.m for the experiments performed in […]. Error bars are ±s.e.m. of experiments performed in triplicate. ***P<0.001, ** P<0.01, t test.\nFIG. 15 mRNA levels for VEGF in A549 cell line, illustrating the dose response to LS72 treatment at three different concentrations. qRT-PCR assays were performed in order to determine the mRNA levels for VEGF in A549 cell line treated with LS72 at concentrations: 100 nM, 400 nM, 1600 nM. Hypoxia was induced by DFO (300 μM). Error bars are ±sem for the experiments performed in triplicate. Error bars are ±s.e.m. of experiments performed in triplicate. ** P<0.01, * P<0.05, t test.\nAfter tests with various serum levels in the media and hypoxia induction methods, the conditions that worked remarkably and consistently well for the induction of HIF1α dependent genes were to keep A549 cells in 2% serum followed by treating cells with compound or control in the media with 0.2% serum for 48 h (FIG. 13). Under these conditions while hypoxia bag was the best option for induction of the LOX gene, the best hypoxic response leading to upregulation of many other HIF1α inducible genes was treatment with 300 μM DFO.\nThe hypoxia induction was done at a confluency of 85% cells in serum free F-12K medium with 300 μM DFO."}, "[4]": {"tested_on": "c-Met protein in MDA-MB-231 cells", "assay": "Western blot of c-Met protein levels in MDA-MB-231 cells", "assay_type": "cell-based, human", "conditions": "MDA-MB-231, 400 nM, HIF1α induced with 150 μM CoCl2", "description": "as §1, §2"}, "Glut1 mRNA in A549 cells": {"tested_on": "Glut1 mRNA in A549 cells", "assay": "qRT-PCR of Glut1 mRNA in A549 cells", "assay_type": "cell-based", "conditions": "300 μM DFO", "description": "as §5\nFIG. 17 qRT-PCR data for Glut1mRNA in 85% confluent A549 cells treated with LS72 at three different concentrations. qRT-PCR assays were performed in order to determine the mRNA levels for Glut1 in A549 cell line treated with LS72 at concentrations: 100 nM, 400 nM, 1600 nM. Hypoxia was induced with DFO (300 μM). Error bars are ±sem for the experiments performed in triplicate. Error bars are ±s.e.m. of experiments performed in triplicate. *** P<0.001, ** P<0.01, t test.\nAfter tests with various serum levels in the media and hypoxia induction methods, the conditions that worked remarkably and consistently well for the induction of HIF1α dependent genes were to keep A549 cells in 2% serum followed by treating cells with compound or control in the media with 0.2% serum for 48 h (FIG. 13). […]"}, "[5]": {"biological_target": "T1, GST-tagged CH1 domain of human p300 (aa residues 323-423) (Homo sapiens, UniProt Q09472)", "T1 construct": "CH1 domain of human p300 (aa residues 323-423)", "T1 sequence (Q09472 323-423)": "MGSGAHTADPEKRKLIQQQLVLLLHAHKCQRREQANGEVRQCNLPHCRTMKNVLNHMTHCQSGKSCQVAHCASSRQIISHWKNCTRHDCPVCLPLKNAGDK", "assay": "SPR direct binding to immobilized GST-CH1-p300", "design": "direct binding to GST-CH1-p300 (in words): dose or concentration left out as unconfirmed", "description": "Prior to undertaking more rigorous biophysical and biological characterization of dimeric ETPs LS69 and LS72, it was important to first characterize its thermodynamic binding properties toward the target, p300 CH1 domain. We conducted SPR experiments in the presence of DTT to mimic the reducing environment that would be found in the intracellular milieu. From the SPR sensorgrams it is clear that both LS69 and LS72 bind directly to the GST-tagged CH1 domain of human p300 (aa residues 323-423) with high affinity."}},
  "data": [
    {"smiles": "CN1C(=O)[C@]2(Cc3ccc(CCc4ccc(C[C@@]56SS[C@@](CO)(C(=O)N5C)N(C)C6=O)cc4)cc3)SS[C@@]1(CO)C(=O)N2C", "note": "(racemic) [LS72, 4,4′-((ethane-1,2-diylbis(4,1-phenylene))bis(methylene))bis(1-(hydroxymethyl)-5,7-dimethyl-2,3-dithia-5,7-diazabicyclo[2.2.2]octane-6,8-dione)]", "values": [
      {"measurement": "VEGF protein levels (western blot)", "setting": "[1]", "value": "significant downregulation"},
      {"measurement": "EC50", "setting": "[2]", "value": "> 10", "unit": "µM"},
      {"measurement": "EC50 at 48 h", "setting": "[3]", "value": 2.8, "unit": "µM"},
      {"measurement": "HIF1α inducible transcription of VEGF, dose response", "setting": "VEGF mRNA in A549 cells; A549 85% confluent, hypoxia 300 μM DFO, 100 nM, 400 nM, 1600 nM", "value": "dose dependent decrease"},
      {"measurement": "reduction of VEGF mRNA levels", "setting": "VEGF mRNA in A549 cells; A549, LS72 400 nM, 0.2% serum, 300 μM DFO, 48 h", "value": 50, "unit": "%"},
      {"measurement": "VEGF transcription levels in normoxia", "setting": "VEGF mRNA in A549 cells; A549, normoxia, 100 nM, 400 nM, 1600 nM", "value": "not changed significantly"},
      {"measurement": "c-Met protein levels (western blot)", "setting": "[4]", "value": "significant downregulation"},
      {"measurement": "Glut1 hypoxic transcriptional up-regulation, dose response", "setting": "Glut1 mRNA in A549 cells; A549 85% confluent, 100 nM, 400 nM, 1600 nM", "value": "dose dependent decrease"},
      {"measurement": "reduction of Glut1 mRNA levels", "setting": "Glut1 mRNA in A549 cells; A549, LS72 400 nM, 0.2% serum, 48 h", "value": "more than 60%"},
      {"measurement": "direct binding to GST-CH1-p300 (in words)", "setting": "[5]", "value": "bind directly"},
      {"measurement": "kon", "setting": "[5]; in the presence of DTT, read-out: rate of association (ka)", "value": 4250, "unit": "M⁻¹ s⁻¹"},
      {"measurement": "Kd", "setting": "[5]; off rate/on rate, read-out: binding constant KD", "value": 3.62, "unit": "µM"}
    ]}
  ]
}
